In brackets after ≈: the same amount, converted by molar mass. Like-named read-outs stand apart in the source and are kept apart here. Each block holds one compound with its values, some of them ahead of it.
Legend:
[1] = biological target: T1, autotaxin (ATX) enzyme (Homo sapiens, UniProt Q13822); experiment: Autotaxin (ATX) enzyme activity inhibition test (Cayman Autotaxin Inhibitor Screening Assay Kit); assay type: biochemical; conditions: 37° C., 30 min, OD405, read-out: IC50, inhibitory effect on ATX enzyme activity
T1 construct: purchased Cayman 700580
Experimental: The inhibitory effects of the compounds on the autotaxin enzyme were detected using the Autotaxin Inhibitor Screening Assay Kit (Cayman, 700580). […] Subsequently, the 8 concentrations were diluted with Autotaxin Assay buffer (1×) provided in the kit into 19× compound working solutions (DMSO content was 1.9%). The Autotaxin Assay Reagent (10×) was taken out and diluted by 10 times with Autotaxin Assay Buffer (1×). The Autotaxin Substrate was taken out, dissolved by adding 1.2 mL of Autotaxin Assay Buffer (1×), mixed evenly and let stand by at room temperature. In a 96-well plate, 150 μL of Autotaxin Assay Buffer (1×), 10 μL of the prepared and diluted 19× compound working solution, 10 μL of Autotaxin Assay Reagent (1×), and 20 μL of the dissolved Autotaxin Substrate were added to each of the wells for each concentration, and homogenously mixed. The 96-well plate was shaken in a constant temperature shaker at 37° C. and incubated in the dark for 30 min, and then the plate was taken out and placed on a microplate reader to read OD405.

[2] = biological target: T2, ATX enzyme in human plasma (Homo sapiens, UniProt Q13822); experiment: Inhibition of activity of ATX enzyme in human plasma (LPA18:2 formation, LC-MSMS); assay type: biochemical; conditions: for IC50: human plasma, 37° C., 3 h, LPA18:2 formation, read-out: IC50, inhibitory effect on activity of ATX enzyme in human plasma
T2 construct: Whole blood was collected from healthy volunteers and anticoagulated with heparin; from tissue; host or cells: human plasma (heparin) from healthy volunteers
Experimental: Whole blood was collected from healthy volunteers and anticoagulated with heparin. The blood collection tubes were centrifuged at 3,000 rpm for 10 min, and the plasma was taken and stored at −80° C. for use.
The compound was serially diluted with DMSO according to the conventional concentration requirements, then 3 μL of each of the diluted compound solutions was added to a 96-well plate, and 147 μL of PBS was added to each well containing 3 μL of the compound solution. After mixing homogenously, 50 μL of the mixture was taken out and added to a new 96-well plate. The human plasma was taken out from the −80° C. refrigerator and thawed through rapid shaking in a 37° C. water bath. 50 μL of the human plasma was taken and added to the 96-well plate containing 50 μL of the diluted compound (the final system contained 1% DMSO). The group without the compound was set as the positive group. The 96-well plate was shaken and mixed uniformly, and incubated at 37° C. for 3 h. A blank group was also provided, and the plasma of the blank group was stored at −80° C. The blank group is provided to determine the baseline concentration of endogenous LPA.
After the incubation was finished, the blank group was thawed on ice and transferred to an incubation plate. Excess acetonitrile containing the internal standard LPA17: 0 was added to the incubation plate to precipitate the plasma protein. After vortex centrifugation, the supernatant was taken and diluted, and a peak area of LPA18: 2 and a peak area of internal standard LPA17: 0 were detected using LC-MSMS mass spectrometry.
(§1) A ratio of the peak area of LPA18: 2 to the peak area of internal standard LPA17: 0 was calculated, and a formation inhibition rate of LPA18: 2 was calculated according to the following formula:
(§2) Inhibition rate (%)=100−(compound group with different concentrations−blank group)/(positive group−blank group)*100
According to the inhibition rates of different concentrations of the compound, the IC50 value of the compound for inhibiting activity of ATX enzyme in human plasma was calculated.

[3] = biological target: T3, ATX enzyme in rat plasma (Rattus norvegicus, UniProt Q64610); experiment: Inhibition of activity of ATX enzyme in rat plasma (LPA18:2 formation, LC-MSMS); assay type: biochemical; conditions: for inhibitory activity on ATX enzyme in rat plasma compared with control compounds 1 and 2: comparison in words
T3 construct: Whole blood was collected from rats and anticoagulated with heparin; from tissue; host or cells: rat plasma (heparin)
Experimental: Whole blood was collected from rats and anticoagulated with heparin. The blood collection tubes were centrifuged at 3,000 rpm for 15 min, and the plasma was placed on ice for use.
The compound was serially diluted with DMSO: 30% ACN=1:19 according to the conventional concentration requirements, and then placed on ice. 147 μL of plasma, which was placed on ice, was added to a 96-well plate, and then 3 μL of each of the gradient solutions of the compound (finally 1[…] DMSO) was added. A group containing none of the compounds was set as the positive group. The 96-well plate was mixed uniformly, and incubated at 37° C. for 3 h. In addition, a blank group was also provided. At the beginning of the incubation, the plasma of blank group was added to with excessive acetonitrile containing the internal standard LPA17: 0 to precipitate the plasma protein, vortexed to mix, and stored at 4° C. The blank group was provided to determine the baseline concentration of endogenous LPA.
A peak area of LPA18: 2 and a peak area of internal standard LPA17: 0 were detected using LC-MSMS mass spectrometry.
as §1, §2
According to the inhibition rates of different concentrations of the compound, the IC50 value of the compound for inhibiting activity of ATX enzyme in rat plasma, was calculated.

[4] = Thermodynamic solubility test; assay type: physicochemical; conditions: thermodynamic from solid
Experimental: The compound was accurately weighed, and the prepared phosphate buffer (pH 7.4), FeSSIF solution (pH 5.8) and FaSSGF solution (pH 1.6) were added to prepare a solution with a concentration of 4 mg/mL, which was shaken at 1,000 rpm for 1 hour, and then incubated overnight at room temperature. After the incubation, the solution was centrifuged at 12,000 rpm for 10 min to remove undissolved particles, and the supernatant was transferred to a new centrifuge tube. The supernatant was diluted appropriately, then added with an acetonitrile solution containing the internal standard, and quantified using a standard curve prepared with the same matrix.

[5] = cited from earlier work; for probability of discontinuation due to serious adverse events: patients taking the drug
[6] = Human liver microsome stability test; conditions: human liver microsomes; for Remaining percentage (%) of compound after incubation for 30 min: NADPH, 37° C.; for half-life at 1 µM: human
Experimental: The human liver microsome stability test was performed by incubating the compound and human liver microsomes in vitro for detection. First, the test compound was prepared into a 10 mM stock solution in DMSO solvent, and then the compound was diluted to 0.5 mM with acetonitrile. Human liver microsomes (Corning) were diluted with PBS and prepared as a microsome/buffer solution, which was used to dilute the 0.5 mM compound solution into a working solution. […] A deep-well multi-well plate was taken, 30 μL of the working solution and 15 μL of pre-warmed NADPH solution (6 mM) were sequentially added to each well to initiate a reaction, and the reaction was incubated at 37° C. […] After centrifugation, the supernatant was collected, and added with purified water in a ratio of 1:1 to perform LC-MS/MS detection. […] T1/2 was calculated by using Excel.

[7] = Pharmacokinetic test in rats; assay type: in vivo; conditions: Sprague-Dawley, rat, plasma, male SD rats, oral gavage 10 mg/kg
Experimental: (§3) For the pharmacokinetic test of rats, 3 male SD rats (180-240 g) were used, and fasted overnight. The rats were orally administered by gavage (10 mg/kg). […] The blood samples were centrifuged at 8,000 rpm at 4° C. for 6 min, and plasma was collected and stored at −20° C. The plasma at each time point was taken and added with an acetonitrile solution containing internal standard in 3 to 5 times the amount, vortexed and mixed for 1 min, and centrifuged at 13,000 rpm at 4° C. for 10 min. The supernatant was collected, added with water in 3 times the amount, and mixed. An appropriate amount of the mixture was taken for LC-MS/MS analysis. The main pharmacokinetic parameters were analyzed using WinNonlin 7.0 software with non-compartmental model.

[8] = Pharmacokinetic test in canines; assay type: in vivo; conditions: dog, plasma; male beagle dogs, oral gavage 5 mg/kg
Experimental: as §3
For the pharmacokinetics test of canines, 3 male beagle dogs (8 to 10 kg) were used, and fasted overnight. The dogs were orally administered by gavage (5 mg/kg). The rest of the operation is the same as the pharmacokinetic test in rats.

[9] = rat plasma, 37° C., 3 h, LPA18:2 formation, read-out: IC50, inhibitory effect on activity of ATX enzyme in rat plasma
[10] = FaSSGF solution, fassgf or other biorelevant, FaSSGF pH 1.6, overnight at room temperature, read-out: Solubility, FaSSGF (pH 1.6)
[11] = FeSSIF solution, FeSSIF pH 5.8, overnight at room temperature, read-out: Solubility, FeSSIF (pH 5.8)
[12] = phosphate buffer (PBS), aqueous buffer, PBS pH 7.4, overnight at room temperature, read-out: Solubility, PBS (pH 7.4)

IC50 [1]: 1.29 nM
IC50 [2]: 30.9 nM
IC50 [3, 9]: 10.7 nM
solubility [4, 10]: 448 µg/mL (≈ 1000 µM)
solubility [4, 11]: 317 µg/mL (≈ 708 µM)
solubility [4, 12]: 129 µg/mL (≈ 288 µM)
Structure (SMILES): CC1CC(COCc2c[nH]nn2)CCN1C(=O)c1cnc(NC2Cc3ccccc3C2)nc1 (centres unmarked) [Compound I-5, (4-(((1H-1,2,3-triazol-4-yl)methoxy)methyl)-2-methylpiperidin-1-yl)(2-((2,3-dihydro-1H-inden-2-yl)amino)pyrimidin-5-yl)methanone]
inhibitory activity on ATX enzyme in rat plasma compared with control compounds 1 and 2 [3]: higher inhibitory activity on ATX enzyme in rat plasma than the control compounds 1 and 2

IC50 [1]: 1.08 nM
IC50 [2]: 11.8 nM
IC50 [3, 9]: 4.8 nM
Structure (SMILES): O=C(c1cnc(NC2Cc3ccc(F)cc3C2)nc1)N1CC2(CC(OCc3c[nH]nn3)C2)C1 (centres unmarked) [Compound I-10, (6-((1H-1,2,3-triazol-4-yl)methoxy)-2-azaspiro[3.3]heptan-2-yl)(2-((5-fluoro-2,3-dihydro-1H-inden-2-yl)amino)pyrimidin-5-yl)methanone]
inhibitory effect on ATX enzyme in human plasma compared with control compounds 1 and 2 ([2]; comparison in words): higher inhibitory effect on ATX enzyme in human plasma than the control compounds 1 and 2
inhibitory activity on ATX enzyme in rat plasma compared with control compounds 1 and 2 [3]: higher inhibitory activity on ATX enzyme in rat plasma than the control compounds 1 and 2

IC50 [1]: 2.04 nM
IC50 [3, 9]: 136 nM
Structure (SMILES): O=C(c1cnc(NC2Cc3cc(F)c(F)cc3C2)nc1)N1CCC(COCc2c[nH]nn2)CC1 [Compound I-8, (4-(((1H-1,2,3-triazol-4-yl)methoxy)methyl)piperidin-1-yl)(2-((5,6-difluoro-2,3-dihydro-1H-inden-2-yl)amino)pyrimidin-5-yl)methanone]

IC50 [1]: 1.16 nM
IC50 [2]: 14.6 nM
IC50 [3, 9]: 14.7 nM
Structure (SMILES): O=C(c1cnc(NC2Cc3ccc(F)cc3C2)nc1)N1CCC(COCc2c[nH]nn2)CC1 (centres unmarked) [Compound I-7, (4-(((1H-1,2,3-triazol-4-yl)methoxy)methyl)piperidin-1-yl)(2-((5-fluoro-2,3-dihydro-1H-inden-2-yl)amino)pyrimidin-5-yl)methanone]

IC50 [3]: 413 nM
Tmax [7]: 30 min
AUC(0-t) ([7]; read-out: AUC0-t): 2570 ng·h/mL
Cmax ([7]; read-out: Cmax): 582 ng/mL
AUC(0-t) [8]: 14200 ng·h/mL
Cmax [8]: 2100 ng/mL
Tmax [8]: 120 min
Remaining percentage (%) of compound after incubation for 30 min [6]: 24.8%
half-life at 1 µM [6]: 16 min
Structure (SMILES): CCc1nc2c(C)cc(N3CCN(CC(=O)N4CC(O)C4)CC3)cn2c1N(C)c1nc(-c2ccc(F)cc2)c(C#N)s1 [Control compound 2, reference compound]

IC50 [1]: 1.43 nM
IC50 [2]: 41.2 nM
IC50 [3, 9]: 22.9 nM
solubility [4, 10]: 165 µg/mL (≈ 366 µM)
solubility [4, 11]: 49 µg/mL (≈ 109 µM)
solubility [4, 12]: 18.6 µg/mL (≈ 41.2 µM)
Structure (SMILES): O=C(c1cnc(NC2Cc3ccccc3C2)nc1)N1CCC(COCc2c[nH]nn2)C(F)C1 (centres unmarked) [Compound I-6, (4-(((1H-1,2,3-triazol-4-yl)methoxy)methyl)-3-fluoropiperidin-1-yl)(2-((2,3-dihydro-1H-inden-2-yl)amino)pyrimidin-5-yl)methanone]

Further lines, the compound ahead of its results:

Structure (SMILES): CC1CN(C(=O)c2cnc(NC3Cc4ccccc4C3)nc2)CCC1COCc1c[nH]nn1 (centres unmarked) [Compound I-4, (4-(((1H-1,2,3-triazol-4-yl)methoxy)methyl)-3-methylpiperidin-1-yl)(2-((2,3-dihydro-1H-inden-2-yl)amino)pyrimidin-5-yl)methanone]
IC50 [3, 9]: 32.3 nM
solubility [4, 10]: 332 µg/mL (≈ 741 µM)
solubility [4, 12]: 147 µg/mL (≈ 329 µM)

Structure (SMILES): COC(=O)c1ccc2c(c1)NC(=O)/C2=C(\Nc1ccc(N(C)C(=O)CN2CCN(C)CC2)cc1)c1ccccc1 [Nintedanib]
probability of discontinuation due to serious adverse events [5]: 26.3%
incidence of gastrointestinal reactions ([5]; patients): ≤ 50%

Structure (SMILES): Cc1ccc(=O)n(-c2ccccc2)c1 [Pirfenidone]
probability of discontinuation due to serious adverse events [5]: 20.9%

Structure (SMILES): CC(OCC1CCN(C(=O)c2cnc(NC3Cc4ccccc4C3)nc2)CC1)c1cn[nH]n1 (centres unmarked) [Compound I-2, (4-((1-(2H-1,2,3-triazol-4-yl)ethoxy)methyl)piperidin-1-yl)(2-((2,3-dihydro-1H-inden-2-yl)amino)pyrimidin-5-yl)methanone]
IC50 [1]: 3.39 nM
IC50 [2]: 24.7 nM
Remaining percentage (%) of compound after incubation for 30 min [6]: 39.65%
half-life at 1 µM [6]: 24 min

Structure (SMILES): CC(OCc1c[nH]nn1)C1CCN(C(=O)c2cnc(NC3Cc4ccccc4C3)nc2)CC1 (centres unmarked) [Compound I-3, (4-(1-((1H-1,2,3-triazol-4-yl)methoxy)ethyl)piperidin-1-yl)(2-((2,3-dihydro-TH-inden-2-yl)amino)pyrimidin-5-yl)methanone]
IC50 [1]: 6.71 nM
IC50 [2]: 42.1 nM
